In US20100028417A1, “USE OF SUBSTITUTED GLYCERIN DERIVATIVES FOR PRODUCING A PHARMACEUTICAL PREPARATION” (priority 2006, published 2010):

How the values were obtained:
cytochrome P450 [1] = assay: in vitro inhibition of cytochrome P450 activity; type: biochemical
cytochrome P450 [2] = assay: in vivo activity (inhibition of cytochrome P450 activity)

With `C#CCCCCCCCCC(C)(C)C(=O)O` [2,2-dimethyl-11-dodecinyl acid] the “inhibition of cytochrome P450 activity” value (cytochrome P450 [1]) was “comparably high inhibition” and the “in vivo activity compared with 10-undecinyl acid” value (cytochrome P450 [2]) was “far superior in vivo”.

`C#CCCCCCCCCC(=O)O` [10-undecinyl acid] was tested, and the “inhibition of cytochrome P450 activity” value (cytochrome P450 [1]) was “comparably high inhibition”.
